This note sets out measurements from publication PMC6891695, “Evaluation of Antifouling Potential and Ecotoxicity of Secondary Metabolites Derived from Red Algae of the Genus Laurencia” (Marine Drugs, 2019).

One data set has as its system RTL-W1 cell line. The experiment in a line: RTL-W1 crystal violet assay (cell viability). Format: cell-based, rainbow trout. Conditions: for EC50: Oncorhynchus mykiss, RTL-W1, Crystal violet assay, 48 h incubation; for crystal violet assay EC50 (in words): RTL-W1. As to the method: (§1) The RTL-W1 cell line, a non-transformed rainbow trout liver cell line that has already been used in environmental toxicity assays, was established from the normal liver of an adult rainbow trout by proteolytic dissociation of liver fragments. RTL-W1 cells were cultured in 75 cm^2 culture flasks (Orange Scientific, Braine l’Alleud, Belgium) at 20 °C in Leibovitz’s (L-15, Sigma-Aldrich, St. Louis, MO, USA) medium supplemented with 5% fetal bovine serum (FBS) and 1% L-glutamine in CO2-free incubator. For the cytotoxicity assays of the selected secondary metabolites, cells were seeded at 3 × 10^4 cells/well density in a 96-well tissue culture plate (Orange Scientific Braine l’Alleud, Belgium) in 100 μL culture medium/well for 2 days before the assays. Three different cytotoxicity protocols were used: 1) The alamar blue/resazurin fluorometric/colorimetric cell viability assay to assess the metabolic capacity and mitochondrial function; 2) the crystal violet cell viability assay for indirect quantification of cell death; and 3) the neutral red cell proliferation assay for lysosomal activity. Two days after seeding the cells, cultures were incubated with various concentrations of selected secondary metabolites at 20 °C for 48 h before cell viability was assessed. […] For the alamar blue/resazurin fluorometric/colorimetric cell viability assay, 100 μL of 3 μg/100 μL Resazurin sodium salt (Sigma-Aldrich, St. Louis, MO, USA) in incubation medium was added on each well and incubated under sterile conditions at 20 °C for 4 h. For the crystal violet cell viability assay, after 48 h of incubation with each secondary metabolite, the culture medium was aspirated and cells were washed twice with sterile dd. H2O. The final wash was aspirated and 50 μL of 0.5% (w/v) crystal violet staining solution (20% methanol in dd. H2O) was added to each well followed by incubation for 20 min at room temperature on a bench rocker with a frequency of 20 oscillations per minute. The staining solution was then aspirated and the plate was washed four times with sterile dd. H2O and left to air-dry without its lid for 3 h at room temperature. Next, 200 μL of methanol was added to each well, and the plate was incubated with its lid on for 20 min at room temperature on a bench rocker with a frequency of 20 oscillations per minute. For the neutral red cell proliferation assay, after 48 h of incubation with each secondary metabolite, the culture medium was aspirated and cells were washed twice with phosphate-buffered saline (PBS, pH 7.4). Cells were then incubated with 100 μL of a 40 μg/mL neutral red staining solution in culture medium at 20 °C for 4 h followed by two washes with 150 μL of PBS. Then cells were incubated with 100 μL neutral red destain solution (50% ethanol, 49% dd. H2O, 1% glacial acetic acid) for 10 min on a bench rocker with a frequency of 80 oscillations per minute. Absorbance was read at 570 nm for alamar blue/resazurin and crystal violet and at 540 nm for neutral red using a Tecan infinite M200 Pro microplate reader. For each assay and each secondary metabolite, a minimum of four independent dose–response experiments with three replicates each were carried out. Calculations were carried out using detailed formulas (AbCam, Cambridge, UK, and results were analyzed with GraphPad Prism v.6.
(§2) For EC50 or IC50 (the concentration that results in 50% stimulation or inhibition relative to the control) calculations in GraphPad Prism v.6, all data were fitted to the curve according to the following models for normalized response: Y = 100/(1 + 10^((X − LogIC50))) or Y = 100/(1 + 10^((LogEC50 − X))) depending on the trend of the curve.

Data set [1] has as its system HEK293 cell line. The experiment in a line: HEK293 neutral red assay (lysosome activity). Format: cell-based, human. The note with it: for EC50: Homo sapiens, HEK293, Neutral red assay, 48 h incubation; for effect on lysosomal activity (in words): HEK293. As to the method: as §1
(§3) HEK293 cells, a human embryotic kidney cell line, were obtained from ATCC (ATCC® CRL-1573™) at passage 37 of the original clone and used at passage 38. Cells were cultured routinely in 75 cm^2 culture flasks (Orange Scientific, Braine l’Alleud, Belgium) at 37 °C (5% CO2) in DMEM cell culture medium (Biosera) supplemented with 10% FBS (Sigma-Aldrich, St. Louis, MO, USA) and 1% L-glutamine. All assay conditions and protocols were identical to those described above for RTL-W1 cells with the exception that incubations were carried out at 37 °C. […]

In a further data set the test system is Chaetoceros gracilis. The experiment in a line: Chaetoceros gracilis toxicity (phytoplankton growth) assay. Conditions: for EC50: Chaetoceros neogracilis, 96 h. Format: cell-based. As to the method: For phytoplankton growth toxicity assays, the criterion for assay validity was that the cell count of the negative control after 96 h should be ≥2 × 10^5 cells/mL [40].
The centric marine diatom C. gracilis Schütt (strain CCMP1315) was grown photoautotrophically in autoclaved artificial seawater (sea salts; Sigma-Aldrich, St. Louis, MO, USA) (30‰) supplemented with F/2 (half-strength medium f as subsequently modified) in 100 mL medium at 20 °C and with ambient air bubbled in the media. By monitoring cell density, an adjusted culture of >1 × 10^6 cells/mL was used for the toxicity assays. At 96 h, a 0.9 mL aliquot of each treatment was sampled, mixed with 0.1 mL Lugol and cell density was counted. Experiments were assumed valid if cell count in the control after 96 h was […].
as §2

Data set [2] relates to HEK293 cell line. Description: HEK293 alamar blue/resazurin assay (mitochondria function). Format: cell-based, human. Conditions: for EC50: Homo sapiens, HEK293, Alamar blue/Resazurin assay, 48 h incubation; for effect on mitochondrial function and metabolism (in words): HEK293. Here is the method: as §1, §3
(Resazurin is reduced to fluorescent resorufin, in cell work by metabolically active cells.)

Data set [3] in a line: Artemia salina toxicity assay. The note with it: Artemia salina, in vivo, read-out: EC50 Artemia salina toxicity (mortality). Format: in vivo. As to the method: The short-term toxicity assay with A. salina nauplii was used to determine the toxicity of secondary metabolites. Hatching of A. salina nauplii was carried out in ASW (35‰) using 0.5 g of cysts incubated in 500 mL seawater at a temperature of 25 ± 1 °C and lateral illumination (1000 Lux). All cysts were kept in continuous suspension with aeration and 24 h later hatched larvae (instar I) were harvested. Toxicity assays were carried out in three independent experiments in 24-well plates with four replicates of each tested concentration. Ten nauplii per well were transferred with a Pasteur pipette into the 24-well plates and each well was filled with 2 mL of ASW and 50 μL of various concentrations of the tested compounds in methanol. Control treatments received 50 μL of methanol. Plates were incubated in the dark at 25 ± 1 °C for 48 h. Mortality was assessed by recording the number of individuals with no movement of their appendages within 10 seconds and is expressed as the percentage of the total number of assessed individuals for each concentration.
as §2

Bounds are passed on as bounds.

A word on the EC50: it is the concentration needed to bring the measured effect to its halfway point. With `CC(C)[C@@H]1CC=C[C@H]2[C@H]3[C@](C)(CC[C@]12CBr)[C@@H](Br)CC[C@@]3(C)O` [Bromosphaerol, reference compound], the 50% effective concentration (EC50) in the data set with RTL-W1 cell line was 0.575 µM; in the data set with HEK293 cell line [1], 340 µM; in the data set on Chaetoceros gracilis, 4.34 µM; in the data set on HEK293 cell line [2] it was 57.6 µM. In addition, the “crystal violet assay EC50 (in words)” value with RTL-W1 cell line is given as “sub-micromolar”. The “inhibition of C. gracilis growth (in words)” value in the data set with Chaetoceros gracilis is “very potent inhibitor of C. gracilis growth”.

In the case of `C=CC(C)(O)CC[C@@H]1C(=C)CC[C@@H](Br)[C@@]1(C)CCC1OC1(C)C` (stereo partly drawn) [Compound 18], in the data set with RTL-W1 cell line, the concentration for a half-maximal effect (EC50) is 0.456 µM and the “crystal violet assay EC50 (in words)” value is “sub-micromolar”. Also, in the data set on HEK293 cell line [1], the “effect on lysosomal activity (in words)” value is listed as “not affected” and the EC50 was > 1000 µM. Besides, the EC50 in the data set with Chaetoceros gracilis was 10.7 µM. Besides, in the data set on HEK293 cell line [2], the “effect on mitochondrial function and metabolism (in words)” value was “very selective against mitochondrial function and metabolism”; the concentration giving a half-maximal response (EC50) turned out to be 0.225 µM. In data set [3], the LC50 at 24 h amounted to 34.9 µM and the LC50 at 48 h was 38.1 µM.

`C=C(C1CCC(C)(O)C(Br)C1)C1C(Br)C2C(CCC2(C)O)C1(C)C` (stereo not drawn) [Compound 19, neorogioldiol]: the EC50 is 12.8 µM in the data set on RTL-W1 cell line, > 1000 µM in the data set with HEK293 cell line [1], 352 µM in the data set with Chaetoceros gracilis and 0.062 µM in the data set with HEK293 cell line [2]. For the same molecule, the “effect on lysosomal activity (in words)” value with HEK293 cell line [1] was “not affected”. In addition, the “effect on mitochondrial function and metabolism (in words)” value with HEK293 cell line [2] was “very selective against mitochondrial function and metabolism”. For the same molecule, the LC50 at 24 h in data set [3] came to 31.5 µM. Also, the LC50 at 48 h in data set [3] was found to be 304 µM.

Take `CC1=C2CC[C@@](C)(Cl)[C@@H](Br)C[C@]2(C)[C@@H](C)[C@@H](Br)[C@@H]1O` [Compound 9, perforenol]: the EC50 is 16 µM with RTL-W1 cell line, > 1000 µM in the data set with HEK293 cell line [1], 49.8 µM with Chaetoceros gracilis and 10.8 µM in the data set with HEK293 cell line [2]. In addition, the “effect on lysosomal activity (in words)” value in the data set with HEK293 cell line [1] is listed as “not affected”. Further, in data set [3], the LC50 at 24 h was 283 µM. Moreover, the LC50 at 48 h in data set [3] amounted to 189 µM.
